{
  "source": "patent EP4700041A1",
  "about": "“NOVEL PEPTIDE HAVING ACTIVITY OF RETARDING DEGRADATION OF HYALURONIC ACID AND USES THEREOF” (Caregen Co., Ltd., priority 2023, dated 2026)",
  "key": {"[1]": {"experiment": "Delay of hyaluronic acid degradation by reactive oxygen species in hyaluronic acid solution (viscosity, rheometer)", "details": "1.5 wt% hyaluronic acid solution in PBS; peptide 100 ppm, 1000 ppm, 5000 ppm; 500 mM H2O2; 60 and 180 minutes; FIG. 5", "method": "Hyaluronic acid was dissolved in PBS to a concentration of 1.5 wt% and hydrated, and 10 g of this solution was dispensed into each conical tube. Peptide solutions were added to the dispensed hyaluronic acid solutions so that the final peptide concentrations were 0 ppm (no addition), 100 ppm, 1000 ppm, and 5000 ppm, respectively. 2 mL of 500 mM hydrogen peroxide (H2O2) was added to each. Viscosity was measured using a rheometer (single shear stress) by sampling at 0, 30, 60, and 180 minutes to compare the viscosity values according to the peptide concentration. As above, 1.5 wt% hyaluronic acid solutions containing peptides at each concentration were treated with hydrogen peroxide to maintain the degradation reaction by reactive oxygen species for 60 and 180 minutes, thereby degrading hyaluronic acid. After the degradation reaction, the viscosity of each hyaluronic acid solution was measured to confirm the degradation delaying efficacy."}, "[2]": {"experiment": "Delay of hyaluronic acid degradation by reactive oxygen species in BDDE-cross-linked filler (Congo Red diffusion, absorbance 500 nm)", "details": "37°C, FIG. 6", "method": "A 1,4-Butanediol diglycidyl ether (BDDE)-cross-linked hyaluronic acid filler with or without the peptide of Preparation Example 1 was prepared, and Congo Red and hyaluronidase (HAdase) as absorbing dyes were prepared. 20 µL of 1 mM Congo Red was added to each 1.5 mL eppendorf tube, and 100 µL each of the peptide-free filler (control filler) and the peptide-containing filler were added on the absorbing dye. Each was treated with 350 µL of 500 mM hydrogen peroxide (H2O2). Each tube was placed in an incubator at 37°C, and 100 µL of the sample supernatant was collected at time points of 1 hour, 3 hours, 6 hours, 24 hours, 48 hours, and 72 hours and transferred to 96-wells. The absorbance was measured at 500 nm using a microplate reader (SpectraMax iD3, Molecular devices, USA). As above, BDDE-cross-linked hyaluronic acid filler samples with or without the peptide were prepared, and the degree of degradation of hyaluronic acid filler by reactive oxygen species was compared depending on the presence or absence of peptide. The degree of degradation of hyaluronic acid filler was measured by the change in absorbance due to the diffusion of dye. That is, the principle that the flowability of the sample increases when hyaluronic acid is degraded by reactive oxygen species and thus the diffusion of the dye increases was utilized."}, "[3]": {"experiment": "pH stability of the peptide (HPLC area)", "format": "physicochemical", "details": "1000 ppm solution, pH 4 to pH 10, HPLC area compared with pH 7; FIG. 7b", "method": "The evaluation of pH stability was performed as follows. A diluted solution of the peptide of Preparation Example 1 at a concentration of 1000 ppm was prepared, and the initial pH value of the solution was measured (pH = 3.21). 0.5 M NaOH was added so as to titrate the pH of the solution to pH 4, pH 7, and pH 10, respectively. Each sample was filtered through a 0.22 µm filter. The area values were compared based on pH 7 measured by HPLC."}, "[4]": {"experiment": "Thermal stability of the peptide (HPLC area)", "format": "physicochemical", "details": "1000 ppm solution, 50°C vs 25°C, 72 hours, FIG. 7a", "method": "The evaluation of thermal stability was performed as follows. A diluted solution of the peptide of Preparation Example 1 at a concentration of 1000 ppm was prepared, dispensed into 50 mL conical tubes, and placed in an incubator at 25°C and 50°C. After 72 hours, 1 mL of each sample was filtered through a 0.22 µm filter. The area values were compared at 25°C based on pH 7 measured by HPLC."}},
  "note": "Ends that are not written are not given here.",
  "data": [
    {"sequence": "KIWNLEPSRNGT [SEQ ID NO: 1, KIWNLEPSRNGT]", "values": [
      {"measurement": "degradation of hyaluronic acid by reactive oxygen species (viscosity)", "setting": "[1]", "result": "degradation of hyaluronic acid was delayed as the concentration of peptide increased"},
      {"measurement": "degradation delay improved", "setting": "[2]; BDDE-cross-linked hyaluronic acid filler with peptide vs peptide-free control filler, 24 hours after treatment with 500 mM hydrogen peroxide", "result": "≥ 50", "unit": "%"},
      {"measurement": "effect of delaying degradation", "setting": "[2]; BDDE-cross-linked hyaluronic acid filler with peptide, treated for 48 hours with 500 mM hydrogen peroxide", "result": 85, "unit": "%"},
      {"measurement": "pH stability", "setting": "[3]", "result": "stable"},
      {"measurement": "thermal stability", "setting": "[4]", "result": "stable"}
    ]}
  ]
}
